Laboratory results taken from article PMC9681820, “A PDE10A inhibitor CPL500036 is a novel agent modulating striatal function devoid of most neuroleptic side-effects” (Frontiers in Pharmacology, 2022).
Where two headings read alike, the source gives them in different places.

How the values were obtained:
other PDE family members = system: other PDE family members; parameters: method as in Moszczyński-Pętkowski et al., 2018; conditions: at a concentration of 100x IC50; ref Moszczyński-Pętkowski et al., 2018; cited from earlier work
Sprague–Dawley rats = assay: Catalepsy bar test; type: in vivo; conditions: p.o.
Protocol: Sprague–Dawley rats (∼300 g; Charles River Laboratories, Wilmington, MA, United States) (n = 8–12/group) were treated (p.o.) with vehicle or CPL500036 (0.15 mg/kg, 0.3 mg/kg, 0.6 mg/kg or 2 mg/kg). As a positive control causing catalepsy, haloperidol (1 mg/kg, i.p.) was employed. One hour following drug administration, catalepsy (prolonged maintenance of an externally imposed abnormal posture) was assessed using the bar test as described by Ionova and Severtsev ([Ionov and Severtsev, 2012]). Testing was accomplished by placing each rat in an upright position with his forepaws resting on a horizontal bar (0.9 cm in diameter) suspended in a wooden frame 7.5 cm above the cage floor. The rat was allowed to keep his forepaws on the bar for a measurement lasting for 30 s. The latency to remove both forepaws from the bar was measured with a hand-held stopwatch. The test was repeated for each rat every 30 min up to 240 min. Rats were returned to their home cages between tests. Each rat was tested twice, at an interval of 1 week.

[1] = system: Salmonella typhimurium TA1537; assay: Ames test; conditions: CPL500036 5000µg/plate, n=3
[2] = system: Salmonella typhimurium TA100; conditions: CPL500036 5000µg/plate, n=3
Beagle dogs = assay: In vivo cardiovascular safety, telemetry; conditions: 1.5 mg/kg, 10 mg/kg or 30 mg/kg, p.o., n = 4, free-base form
Text: Four male Beagle dogs who had been implanted previously with telemetry transmitter devices (Data Sciences, Saint Paul, MN, United States) were used. The number of animals corresponds to the standard approach used for such studies ([Smith et al., 2002]; [Authier et al., 2020]) and includes the accepted study sensitivity and ethics for use of nonrodent species ([ICH S7A Safety Pharmacology Studies for Human Pharmaceuticals, 2001]; [Smith et al., 2002]; [Authier et al., 2020]). The study consisted of four acquisition sessions using a crossover design with dosing intervals of ≥ 48 h. In each experimental session, each dog received (via oral gavage) a different treatment: either vehicle or CPL500036 (1.5 mg/kg, 10 mg/kg or 30 mg/kg). Cardiovascular safety was assessed on arterial blood pressure (systolic, diastolic and mean), heart rate (HR) and electrocardiography (RR interval, PR interval, QRS duration, uncorrected QT and corrected QT (QTc) for heart rate using van de Water correction) acquired continuously for ≥ 2 h before dosing, and for ≥ 24 h post-dose. All parameters were evaluated before and at 13-time points after treatment (15 min, 30 min as well as 1 h, 2 h, 3 h, 4 h, 5 h, 6 h, 8 h,12 h, 16 h, 20 h, and 24 h after dosing).

pKa (Figure 1) = type: physicochemical; conditions: printed in the picture of Figure 1, no method given
[3] = Plasma protein binding (equilibrium dialysis); type: in vitro ADME, rats
Protocol: The plasma protein binding study was carried out by Eurofins (Poitiers, France) according to the service-provider’s protocol. Briefly, the protein matrix was spiked with the test compound at 10 μM (n = 2) with a final DMSO concentration of 1%. The dialysate compartment was loaded with phosphate buffered saline (PBS, pH 7.4) and the sample side was loaded with equal volume of the spiked protein matrix. The dialysis plate was incubated at 37°C for 4 h. After the incubation, samples were taken from each compartment, diluted with the phosphate buffer followed by addition of acetonitrile and centrifugation. The supernatants were then used for HPLC-MS/MS analysis. Acebutolol, quinidine, and warfarin were tested as reference.

Acetylcholinesterase = target: T1, Acetylcholinesterase (Homo sapiens, UniProt P22303); assay: SafetyScreen44 enzyme inhibition; type: biochemical; conditions: read-out: % Inh (percent inhibition of the activity of the control enzyme)
T1 construct: purchased Eurofins Cerep (SafetyScreen44)
T1 sequence (P22303 32-614): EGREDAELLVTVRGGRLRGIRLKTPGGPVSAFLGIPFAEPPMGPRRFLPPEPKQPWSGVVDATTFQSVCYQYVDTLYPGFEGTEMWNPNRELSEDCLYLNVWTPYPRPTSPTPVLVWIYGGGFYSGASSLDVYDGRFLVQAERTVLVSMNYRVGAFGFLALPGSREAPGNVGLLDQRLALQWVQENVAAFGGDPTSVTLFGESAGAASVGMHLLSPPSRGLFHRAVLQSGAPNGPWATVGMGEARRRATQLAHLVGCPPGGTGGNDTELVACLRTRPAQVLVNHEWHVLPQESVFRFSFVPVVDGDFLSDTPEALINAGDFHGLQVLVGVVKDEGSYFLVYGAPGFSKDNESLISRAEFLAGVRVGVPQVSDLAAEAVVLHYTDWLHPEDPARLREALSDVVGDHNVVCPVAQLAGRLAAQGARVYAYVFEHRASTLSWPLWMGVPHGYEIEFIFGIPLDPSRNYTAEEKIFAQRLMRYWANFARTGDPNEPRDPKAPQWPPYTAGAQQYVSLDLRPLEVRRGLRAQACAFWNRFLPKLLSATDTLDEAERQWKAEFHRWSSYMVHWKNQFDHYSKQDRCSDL
Protocol: (§1) The SafetyScreen44® assay was carried out by Eurofins (Poitiers, France) according to the service-provider’s protocol. CPL500036 (1 µM) was tested against a panel of […] potential off-targets proteins, including G protein-coupled receptors (GPCRs), transporters, ion channels, nuclear receptors kinases and other non-kinase enzymes, by use of a set of the binding assays.
(§2) Binding of CPL500036 was calculated as the percent binding inhibition of a radioactively labeled ligand specific for each target. Enzyme inhibition of CPL500036 was calculated as the percent inhibition of the activity of the control enzyme. “No interaction” was denoted if inhibition ≤ 25% of specific binding of the control. Determination of muscarinic acetylcholine receptor (M2) activity induced by CPL500036 (antagonism and agonism) was undertaken in human recombinant CHO cells by measurement of the intracellular cAMP level according to the service-provider’s protocol. IC50 (concentration causing a half-maximal inhibition of specific binding of the control) or EC50 (concentration causing a half-maximal response of specific binding of the control) and the Hill coefficient were determined by non-linear regression analysis of the competition curves generated with mean replicate values using Hill-equation curve fitting with software developed at Cerep (Celle-Lévescault, France).

[4] = target: T2, lymphocyte-specific protein tyrosine kinase (Homo sapiens, UniProt P06239); assay: SafetyScreen44 enzyme inhibition; type: biochemical; conditions: read-out: % Inh (percent inhibition of the activity of the control enzyme)
T2 construct: purchased Eurofins Cerep (SafetyScreen44)
T2 sequence (P06239 whole entry): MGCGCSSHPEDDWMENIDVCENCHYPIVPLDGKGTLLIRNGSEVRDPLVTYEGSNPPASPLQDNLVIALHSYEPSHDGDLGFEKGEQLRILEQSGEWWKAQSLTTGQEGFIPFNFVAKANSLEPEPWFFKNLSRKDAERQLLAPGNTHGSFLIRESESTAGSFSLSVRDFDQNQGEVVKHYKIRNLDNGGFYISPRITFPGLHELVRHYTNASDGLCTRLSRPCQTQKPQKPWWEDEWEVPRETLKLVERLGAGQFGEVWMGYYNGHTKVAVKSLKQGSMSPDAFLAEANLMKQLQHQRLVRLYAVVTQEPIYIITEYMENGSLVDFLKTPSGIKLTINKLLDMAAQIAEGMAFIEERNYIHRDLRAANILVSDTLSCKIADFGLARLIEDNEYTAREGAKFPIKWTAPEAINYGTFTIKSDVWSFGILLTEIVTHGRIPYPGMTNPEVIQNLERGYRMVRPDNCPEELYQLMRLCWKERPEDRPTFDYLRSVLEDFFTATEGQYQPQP
Protocol: as §1, §2

Cyclooxygenase 1 = target: T3, Cyclooxygenase 1 (Homo sapiens, UniProt P23219); assay: SafetyScreen44 enzyme inhibition; type: biochemical; conditions: read-out: % Inh (percent inhibition of the activity of the control enzyme)
T3 construct: purchased Eurofins Cerep (SafetyScreen44)
T3 sequence (P23219 24-599): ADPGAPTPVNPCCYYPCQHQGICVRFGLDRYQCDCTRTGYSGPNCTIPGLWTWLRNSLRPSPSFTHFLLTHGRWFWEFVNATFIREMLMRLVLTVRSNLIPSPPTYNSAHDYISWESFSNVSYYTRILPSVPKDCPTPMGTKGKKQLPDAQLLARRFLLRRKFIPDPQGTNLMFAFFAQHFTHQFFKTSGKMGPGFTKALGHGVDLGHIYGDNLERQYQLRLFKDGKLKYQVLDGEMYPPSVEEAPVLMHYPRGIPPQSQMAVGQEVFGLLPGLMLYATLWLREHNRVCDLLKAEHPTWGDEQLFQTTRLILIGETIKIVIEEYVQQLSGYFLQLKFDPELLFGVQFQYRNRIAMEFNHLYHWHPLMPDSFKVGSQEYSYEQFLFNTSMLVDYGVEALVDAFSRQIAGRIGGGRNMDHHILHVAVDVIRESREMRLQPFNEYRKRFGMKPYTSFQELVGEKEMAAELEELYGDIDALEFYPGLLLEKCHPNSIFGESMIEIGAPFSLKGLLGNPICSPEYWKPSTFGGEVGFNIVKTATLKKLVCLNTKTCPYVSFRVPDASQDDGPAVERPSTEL
Protocol: as §1, §2

Cyclooxygenase 2 = target: T4, Cyclooxygenase 2 (Homo sapiens, UniProt P35354); assay: SafetyScreen44 enzyme inhibition; type: biochemical; conditions: read-out: % Inh (percent inhibition of the activity of the control enzyme)
T4 construct: purchased Eurofins Cerep (SafetyScreen44)
T4 sequence (P35354 18-604): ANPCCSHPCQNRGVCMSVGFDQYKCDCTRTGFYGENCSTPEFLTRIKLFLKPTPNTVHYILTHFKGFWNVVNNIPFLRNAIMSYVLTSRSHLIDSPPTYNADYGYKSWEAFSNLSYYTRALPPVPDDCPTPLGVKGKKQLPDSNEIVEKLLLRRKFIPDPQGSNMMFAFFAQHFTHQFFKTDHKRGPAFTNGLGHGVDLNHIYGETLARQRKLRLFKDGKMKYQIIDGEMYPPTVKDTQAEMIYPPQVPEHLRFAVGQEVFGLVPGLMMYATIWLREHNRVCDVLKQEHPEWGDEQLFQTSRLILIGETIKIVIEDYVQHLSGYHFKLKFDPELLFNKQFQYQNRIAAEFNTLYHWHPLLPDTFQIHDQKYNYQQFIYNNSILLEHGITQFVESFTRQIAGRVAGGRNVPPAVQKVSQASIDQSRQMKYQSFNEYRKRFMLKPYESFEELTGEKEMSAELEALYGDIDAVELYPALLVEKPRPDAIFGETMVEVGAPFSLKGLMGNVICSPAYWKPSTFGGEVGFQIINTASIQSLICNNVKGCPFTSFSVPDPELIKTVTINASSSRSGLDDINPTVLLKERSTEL
Protocol: as §1, §2

phosphodiesterase 4 = target: T5, phosphodiesterase 4 (Homo sapiens, UniProt Q08499); assay: SafetyScreen44 enzyme inhibition; type: biochemical; conditions: read-out: % Inh (percent inhibition of the activity of the control enzyme)
T5 construct: purchased Eurofins Cerep (SafetyScreen44)
T5 sequence (Q08499 whole entry): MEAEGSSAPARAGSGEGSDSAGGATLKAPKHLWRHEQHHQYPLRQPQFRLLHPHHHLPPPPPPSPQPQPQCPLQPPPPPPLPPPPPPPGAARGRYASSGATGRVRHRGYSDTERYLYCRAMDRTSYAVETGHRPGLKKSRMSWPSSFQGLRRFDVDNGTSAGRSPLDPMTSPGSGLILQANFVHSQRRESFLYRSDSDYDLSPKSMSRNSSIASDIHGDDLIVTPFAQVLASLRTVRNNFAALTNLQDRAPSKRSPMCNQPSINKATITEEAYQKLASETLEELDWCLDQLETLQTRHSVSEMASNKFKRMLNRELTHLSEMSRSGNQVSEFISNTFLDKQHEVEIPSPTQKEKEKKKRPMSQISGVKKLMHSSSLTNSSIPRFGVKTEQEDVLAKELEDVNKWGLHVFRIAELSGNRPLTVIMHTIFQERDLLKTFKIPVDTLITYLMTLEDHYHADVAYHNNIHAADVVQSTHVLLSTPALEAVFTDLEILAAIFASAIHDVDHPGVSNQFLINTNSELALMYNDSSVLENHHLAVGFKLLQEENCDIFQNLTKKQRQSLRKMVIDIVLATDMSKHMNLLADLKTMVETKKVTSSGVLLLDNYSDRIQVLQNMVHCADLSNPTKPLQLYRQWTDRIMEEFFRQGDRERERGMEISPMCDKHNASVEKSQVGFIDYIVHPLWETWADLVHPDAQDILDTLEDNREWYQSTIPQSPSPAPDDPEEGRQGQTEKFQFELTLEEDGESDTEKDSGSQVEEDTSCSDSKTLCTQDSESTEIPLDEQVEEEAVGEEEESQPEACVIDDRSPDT
Protocol: as §1, §2

phosphodiesterase 3A = target: T6, phosphodiesterase 3A (Homo sapiens, UniProt Q14432); assay: SafetyScreen44 enzyme inhibition; type: biochemical; conditions: read-out: % Inh (percent inhibition of the activity of the control enzyme)
T6 construct: purchased Eurofins Cerep (SafetyScreen44)
T6 sequence (Q14432 whole entry): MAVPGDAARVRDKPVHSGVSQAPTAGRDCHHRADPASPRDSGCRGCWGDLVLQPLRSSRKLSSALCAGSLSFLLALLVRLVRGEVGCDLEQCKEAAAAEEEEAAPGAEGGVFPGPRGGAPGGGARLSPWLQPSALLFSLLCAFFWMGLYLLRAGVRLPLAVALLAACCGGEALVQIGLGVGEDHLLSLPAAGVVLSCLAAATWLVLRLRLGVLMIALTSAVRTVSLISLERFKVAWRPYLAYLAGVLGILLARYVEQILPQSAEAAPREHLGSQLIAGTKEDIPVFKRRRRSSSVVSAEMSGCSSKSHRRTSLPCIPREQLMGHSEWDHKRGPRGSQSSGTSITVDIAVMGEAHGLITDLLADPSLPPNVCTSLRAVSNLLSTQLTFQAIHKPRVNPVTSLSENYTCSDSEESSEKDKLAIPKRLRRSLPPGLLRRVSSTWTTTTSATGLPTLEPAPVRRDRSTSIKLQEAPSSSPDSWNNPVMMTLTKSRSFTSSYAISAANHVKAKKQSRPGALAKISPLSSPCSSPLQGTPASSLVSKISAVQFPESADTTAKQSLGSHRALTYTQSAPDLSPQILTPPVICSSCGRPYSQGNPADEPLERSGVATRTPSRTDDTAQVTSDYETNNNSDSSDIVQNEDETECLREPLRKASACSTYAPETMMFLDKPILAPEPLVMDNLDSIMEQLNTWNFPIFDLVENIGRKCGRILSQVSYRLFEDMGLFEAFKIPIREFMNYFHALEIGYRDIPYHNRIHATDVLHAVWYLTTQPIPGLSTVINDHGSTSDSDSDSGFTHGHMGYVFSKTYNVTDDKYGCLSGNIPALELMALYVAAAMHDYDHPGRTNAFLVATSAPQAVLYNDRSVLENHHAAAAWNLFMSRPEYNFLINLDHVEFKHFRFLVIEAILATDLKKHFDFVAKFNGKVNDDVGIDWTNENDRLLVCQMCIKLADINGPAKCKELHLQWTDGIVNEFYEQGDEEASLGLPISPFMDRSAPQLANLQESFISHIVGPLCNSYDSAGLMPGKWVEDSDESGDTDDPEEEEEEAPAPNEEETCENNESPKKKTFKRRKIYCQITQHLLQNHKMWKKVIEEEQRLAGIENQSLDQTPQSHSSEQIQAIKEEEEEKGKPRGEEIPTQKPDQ
Protocol: as §1, §2

[5] = system: Salmonella typhimurium TA98; assay: Ames test; conditions: CPL500036 5000µg/plate, n=3
[6] = With metabolic activation (+S9 mix), 2AA 2µg/plate
[7] = Without metabolic activation (-S9 mix), 9AA 50µg/plate
[8] = Without metabolic activation (-S9 mix), SAZ 2µg/plate
[9] = Without metabolic activation (-S9 mix), NPD 4µg/plate

## Cc1ncc(C)n2nc(-c3ccn4cc(-c5ccccc5)nc4n3)nc12 [CPL500036, 7-[5,8-Dimethyl-(1,2,4)triazolo (1,5-a)pyrazin-2-yl]-2-phenylimidazo (1,2-a) pyrimidine]
Other PDE family members
  inhibition of other PDE family members: didn’t inhibit other PDE family members
Sprague–Dawley rats; 0.15 mg/kg, 60 min–240 min after administration
  catalepsy, bar test: did not induce catalepsy
Sprague–Dawley rats; 0.3 mg/kg, appeared only at 210 min and 240 min
  catalepsy, bar test: low cataleptogenic effect
Sprague–Dawley rats; 0.6 mg/kg, 60 min–240 min after administration
  catalepsy, bar test: apparent 120 min–240 min following administration, but did not achieve the level elicited by haloperidol
Sprague–Dawley rats; 2 mg/kg, compared with haloperidol 1 mg/kg, i.p.
  catalepsy, bar test: strong cataleptogenic effect comparable with that of haloperidol
Sprague–Dawley rats; from AUC data of the duration of catalepsy
  minimum effective dose (MED) needed to elicit catalepsy: 0.6 mg/kg
[1]; [6]
  Mutation rate: 0.69
  Revertants Mean±SD: 6.0±5.20
[1]; [7]
  Mutation rate: 0.71
  Revertants Mean±SD: 4.0±4.36
[2]; [6]
  Mutation rate: 0.82
  Revertants Mean±SD: 62.3±9.02
[2]; [8]
  Mutation rate: 1.02
  Revertants Mean±SD: 66.3±1.08
Beagle dogs
  electrocardiography parameters (particularly QTcv and QRS duration): Noticeable alterations in any of the electrocardiography parameters analyzed (particularly QTcv and QRS duration) were not observed
  heart rate: significant differences were not seen compared with the vehicle control group
  systolic, diastolic and mean blood pressures: Remarkable variations in systolic, diastolic and mean blood pressures were not recorded
pKa (Figure 1)
  pKa: 2.41
[3]; based on the plasma protein binding and pharmacokinetic data
  free concentration of CPL500036 in rats: 5%
[3]; rat, plasma, pH 7.4, rats, 10 μM, 37°C, 4 h, n = 2
  fraction unbound at 4 h, 10 µM: 0.08
Acetylcholinesterase
  inhibition at 1 µM: 13.7%
[4]
  inhibition at 1 µM: -1.9%
Cyclooxygenase 1
  inhibition at 1 µM: -9.5%
Cyclooxygenase 2
  inhibition at 1 µM: -0.4%
Phosphodiesterase 4
  inhibition at 1 µM: 0.8%
Phosphodiesterase 3A
  inhibition at 1 µM: -15.2%
[5]; [6]
  Mutation rate: 0.92
  Revertants Mean±SD: 18.3±8.02
[5]; [9]
  Mutation rate: 0.74
  Revertants Mean±SD: 14.3±1.15
